The values below come from patent US20110039762A1, “TARGETED ANTIMICROBIAL MOIETIES” (C3 JIAN, INC., priority 2009, published 2011).

The subject of one assay is E. faecalis. Put plainly: Kill or inhibit growth/proliferation; morphology, biofilm and growth disruption (Tables 5, 6). On the set-up: key: A: Peptide aggregates; B: Less hyphal formation; Clumps; Diffuse clumps and small polyps; F: Diffuse growth; H: Thin; I: Growth inhibition; Microcolony formation; Rippled; Small polyps; Thick; W: Halo formation on top, microlonies on bottom. In kind it is cell-based, Enterococcus faecalis.

For assay [1], the system named is S. pneumoniae. Kind of assay: MIC (broth microdilution). It is filed as cell-based, Streptococcus pneumoniae. As to the method: (§1) Typically, the in vitro antimicrobial activity of antimicrobial agents is tested using standard NCCLS bacterial inhibition assays, or MIC tests (see, National Committee on Clinical Laboratory Standards “Performance Standards for Antimicrobial Susceptibility Testing,” NCCLS Document M100-S5 Vol. 14, No. 16, December 1994; “Methods for dilution antimicrobial susceptibility test for bacteria that grow aerobically-Third Edition,” Approved Standard M7-A3, National Committee for Clinical Standards, Villanova, Pa.).
(§2) Briefly, ˜1×10^5 cfu/mL bacteria were diluted in TH (S. mutans), or Mueller-Hinton (MH) broth (all other organisms) and distributed to 96-well plates. Serially-diluted (2-fold) peptides were then added and the plates incubated at 37° C. for 18-24 h. […] All experiments were conducted 10 times.
(In general: Dilution methods test growth across graded concentrations, often in twofold steps.)

The subject of another assay is microorganisms. Kind of assay: Peptides having multiple activities (targeting/binding, antimicrobial, growth or phenotype altering). The source says: In certain embodiments, peptides described herein can have multiple activities. Thus for example, a peptide can have both binding/targeting activity and antimicrobial activity. Such peptides can be used, e.g., in a chimeric construct, for any or all of these properties. Thus, for example, a peptide designated “B” in Table 8 can be used as a targeting peptide. If it is also designated G or M it can also be used for antimicrobial activity.

The subject of assay [2] is S. pneumoniae. Kind of assay: Kill or inhibit growth/proliferation; morphology, biofilm and growth disruption (Tables 5, 6). In kind it is cell-based, Streptococcus pneumoniae. On the set-up: key: A: Peptide aggregates; B: Less hyphal formation; Clumps; Diffuse clumps and small polyps; F: Diffuse growth; H: Thin; I: Growth inhibition; Microcolony formation; Rippled; Small polyps; Thick; W: Halo formation on top, microlonies on bottom.

A further assay has as its system E. coli. The description is as above. On the set-up: key: A: Peptide aggregates; B: Less hyphal formation; Clumps; Diffuse clumps and small polyps; F: Diffuse growth; H: Thin; I: Growth inhibition; Microcolony formation; Rippled; Small polyps; Thick; W: Halo formation on top, microlonies on bottom. It is filed as cell-based, Escherichia coli.
Another assay has as its system MRSA. Described as above. On the set-up: key: A: Peptide aggregates; B: Less hyphal formation; Clumps; Diffuse clumps and small polyps; F: Diffuse growth; H: Thin; I: Growth inhibition; Microcolony formation; Rippled; Small polyps; Thick; W: Halo formation on top, microlonies on bottom. In kind it is cell-based, Methicillin-resistant Staphylococcus aureus.
The test system of assay [3] is microorganisms (e.g., bacteria, yeasts, fungi). Put plainly: Targeting peptide binding to target microorganisms (Table 3). To be noted: preferably 1x PBS; for Target(s): microorganism(s) the targeting peptide binds, peptide binding conducted in aqueous buffers varied by peptide solubility; for Target(s) (microorganisms bound by the targeting peptide): peptide binding in aqueous buffers varied by peptide solubility.

A further assay deals with F. nucleatum. Put plainly: Kill or inhibit growth/proliferation; morphology, biofilm and growth disruption (Tables 5, 6). In kind it is cell-based, Fusobacterium nucleatum. On the set-up: key: A: Peptide aggregates; B: Less hyphal formation; Clumps; Diffuse clumps and small polyps; F: Diffuse growth; H: Thin; I: Growth inhibition; Microcolony formation; Rippled; Small polyps; Thick; W: Halo formation on top, microlonies on bottom.

The next assay has as its system S. mutans. The assay is described as above. In kind it is cell-based, Streptococcus mutans. On the set-up: key: A: Peptide aggregates; B: Less hyphal formation; Clumps; Diffuse clumps and small polyps; F: Diffuse growth; H: Thin; I: Growth inhibition; Microcolony formation; Rippled; Small polyps; Thick; W: Halo formation on top, microlonies on bottom.
Assay [4] concerns B. subtilis. Put plainly: MIC (broth microdilution). In kind it is cell-based, Bacillus subtilis. As to the method: as §1, §2
Another assay deals with S. epidermidis. Kind of assay: Kill or inhibit growth/proliferation; morphology, biofilm and growth disruption (Tables 5, 6). In kind it is cell-based, Staphylococcus epidermidis. More on the design: key: A: Peptide aggregates; B: Less hyphal formation; Clumps; Diffuse clumps and small polyps; F: Diffuse growth; H: Thin; I: Growth inhibition; Microcolony formation; Rippled; Small polyps; Thick; W: Halo formation on top, microlonies on bottom.

Assay [5] concerns B. subtilis. The description is as above. It is filed as cell-based, Bacillus subtilis. More on the design: key: A: Peptide aggregates; B: Less hyphal formation; Clumps; Diffuse clumps and small polyps; F: Diffuse growth; H: Thin; I: Growth inhibition; Microcolony formation; Rippled; Small polyps; Thick; W: Halo formation on top, microlonies on bottom.
The subject of the next assay is C. albicans. The description is as above. It is filed as cell-based, Candida albicans. On the set-up: key: A: Peptide aggregates; B: Less hyphal formation; Clumps; Diffuse clumps and small polyps; F: Diffuse growth; H: Thin; I: Growth inhibition; Microcolony formation; Rippled; Small polyps; Thick; W: Halo formation on top, microlonies on bottom.
The test system of a further assay is C. jejuni. The assay is described as above. In kind it is cell-based, Campylobacter jejuni. On the set-up: key: A: Peptide aggregates; B: Less hyphal formation; Clumps; Diffuse clumps and small polyps; F: Diffuse growth; H: Thin; I: Growth inhibition; Microcolony formation; Rippled; Small polyps; Thick; W: Halo formation on top, microlonies on bottom.
Another assay concerns M. luteus. The assay is described as above. In kind it is cell-based, Micrococcus luteus. More on the design: key: A: Peptide aggregates; B: Less hyphal formation; Clumps; Diffuse clumps and small polyps; F: Diffuse growth; H: Thin; I: Growth inhibition; Microcolony formation; Rippled; Small polyps; Thick; W: Halo formation on top, microlonies on bottom.
Another assay concerns C. jeikeium. The assay is described as above. It is filed as cell-based, Corynebacterium jeikeium. On the set-up: key: A: Peptide aggregates; B: Less hyphal formation; Clumps; Diffuse clumps and small polyps; F: Diffuse growth; H: Thin; I: Growth inhibition; Microcolony formation; Rippled; Small polyps; Thick; W: Halo formation on top, microlonies on bottom.
In a further assay the test system is A. niger. Put plainly: MIC (broth microdilution). In kind it is cell-based, Aspergillus niger. As to the method: as §1, §2

“Also recorded” adds a separate entry of the source. Ends that are not written are not given here.

Take PDAPRTCYHKPILAALSRIVVTDR [PF-524]: the “Organism, effect” value in the assay with E. faecalis is on record as “E. faecalis (C)”; with S. pneumoniae [2], “S. pneumoniae (M)”; in the assay on E. coli, “E. coli (M)”; with MRSA, “MRSA (C)”. Besides, in the assay with S. pneumoniae [1], the MIC entry is given as “S. pneumoniae, 50 μM”. Further, the Activities result in the assay on microorganisms is reported as “G B M”. Moreover, the “Target(s)” value in [3] is “S. epidermidis and E. coli and P. aeruginosa and C. albicans and MRSA and S. pneumoniae and E. faecalis and C. jeikeium”.
Regarding “PF-C055: peptide having multiple activities (YNLSIYIYFLHTITIAGLITLPFII; Peptide with targeting and/or antimicrobial activity)”, the “Organism, effect (morphology, biofilm and growth disruption)” value in the assay on F. nucleatum is “F. nucleatum (T)”; in the assay on S. mutans, “S. mutans (I)”. In addition, the Activities result with microorganisms is recorded as “G B”. For the same substance, in assay [3], the “Target(s) (microorganisms bound by the targeting peptide)” value is “A. naeslundii; also recorded: F. nucleatum; also recorded: P. gingivalis; also recorded: S. mutans”.
Consider LVLRICTDLFTFIKWTIKQRKS [PF-497], for which the Activities entry in the assay on microorganisms is given as “B M”. For the same substance, the “Target(s)” value in [3] is given as “S. mutans; also recorded: B. subtilis; also recorded: E. coli”. For the same substance, the MIC result against B. subtilis [4] is given as “B. subtilis, 50 μM”.
Turning to “PF-C145: peptide having multiple activities (YGKESDP; Peptide with targeting and/or antimicrobial activity)”, the “Organism, effect (morphology, biofilm and growth disruption)” value in the assay with F. nucleatum is “F. nucleatum (C)”; in the assay on S. mutans, “S. mutans (I)”. Also, in the assay with microorganisms, the Activities entry is recorded as “G B”. In [3], the “Target(s) (microorganisms bound by the targeting peptide)” value was “A. naeslundii; also recorded: F. nucleatum; also recorded: P. gingivalis; also recorded: S. mutans; also recorded: T. denticola”.
On the same counts, the results for “PF-C062: peptide having multiple activities (PLARATEVVATLFIICSLLLYLTR; Peptide with targeting and/or antimicrobial activity)” are “F. nucleatum (T)”, “S. mutans (I)”, “G B” and “A. naeslundii; also recorded: F. nucleatum; also recorded: P. gingivalis; also recorded: S. mutans; also recorded: T. denticola”.
Regarding RRGCTERLRRMARRNAWDLYAEHFY [PF-148], the “Organism, effect” value in the assay on S. epidermidis is recorded as “S. epidermidis (D)”; with B. subtilis [5], “B. subtilis (I)”; with C. albicans, “C. albicans (B)”; with C. jejuni, “C. jejuni (H)”; in the assay with S. pneumoniae [2], “S. pneumoniae (R)”; with MRSA it was “MRSA (C)”. Also, the “Organism, effect” value is listed as “M. luteus (A)” in the assay with M. luteus and “C. jeikeium (H)” in the assay on C. jeikeium. Further, in the assay on microorganisms, the Activities entry is on record as “G B M”. In addition, the MIC result in the assay on A. niger is “A. niger, 50 μM”; against B. subtilis [4], “B. subtilis, 50 μM”.
Consider CGKLLEQKNFFLKTR [PF-521], for which, in the assay with S. pneumoniae [1], the MIC entry is listed as “S. pneumoniae, 50 μM”. For the same substance, the Activities entry with microorganisms is given as “G B M”. The “Organism, effect” value in the assay on S. pneumoniae [2] was “S. pneumoniae (H)”. Further, in assay [3], the “Target(s)” value was “S. epidermidis; also recorded: E. coli; also recorded: P. aeruginosa; also recorded: S. pneumoniae; also recorded: E. faecalis”.
For the substance “PF-C291: peptide having multiple activities (HPFLTGTGCPLFLIFRLFFVKAYFSFTVF; Peptide with targeting and/or antimicrobial activity)”, the “Organism, effect (morphology, biofilm and growth disruption)” value in the assay with F. nucleatum is recorded as “F. nucleatum (T)”; with S. mutans, “S. mutans (F)”. The Activities entry with microorganisms is “G B”. For the same substance, the “Target(s) (microorganisms bound by the targeting peptide)” value in assay [3] was “A. naeslundii; also recorded: F. nucleatum; also recorded: P. gingivalis; also recorded: S. mutans”.
For “LGLTAGVAYAAQPTNQPTNQPTNQPTNQPTNQPTNQPRW-NH2 [PF-520]”, in the assay with S. pneumoniae [1], the MIC result is on record as “S. pneumoniae, 50 μM”. Further, the Activities result in the assay on microorganisms was “G B M”. Besides, the “Organism, effect” value in the assay on S. pneumoniae [2] is on record as “S. pneumoniae (M)”.
As for FQKPFTGEEVEDFQDDDEIPTII [PF-437], the MIC entry in the assay with S. pneumoniae [1] is on record as “S. pneumoniae, 50 μM”. In addition, the Activities result with microorganisms is on record as “G M”. For the same substance, the “Organism, effect” value in the assay with S. pneumoniae [2] is on record as “S. pneumoniae (I)”.
Turning to GIVLIGLKLIPLLANVLR [PF-322], the “Organism, effect” value in the assay with S. epidermidis is on record as “S. epidermidis (C)”; in the assay with B. subtilis [5], “B. subtilis (H)”. For the same substance, the Activities entry in the assay with microorganisms was “G M”. In addition, the MIC result in the assay on B. subtilis [4] is recorded as “B. subtilis, 50 μM”.
Turning to ASKQASKQASKQASKQASKQASRSLKNHLL [PF-523], in the assay on S. pneumoniae [1], the MIC entry is recorded as “S. pneumoniae, 50 μM”. Moreover, the Activities result in the assay with microorganisms is “B M”. For the same substance, the “Target(s)” value in [3] is reported as “S. epidermidis; also recorded: M. luteus; also recorded: C. albicans; also recorded: S. pneumoniae; also recorded: C. jeikeium; also recorded: C. jejuni”.
Consider SFMPEIQKNTIPTQMK [PF-512], for which the MIC entry against S. pneumoniae [1] is on record as “S. pneumoniae, 50 μM”. Moreover, the Activities result in the assay with microorganisms is “G B M”. In addition, in the assay with S. pneumoniae [2], the “Organism, effect” value was “S. pneumoniae (H)”. The “Target(s)” value in assay [3] is recorded as “S. pneumoniae; also recorded: C. jeikeium”.
Take VMQSLYVKPPLILVTKLAQQN [PF-511]: the MIC result in the assay on S. pneumoniae [1] is recorded as “S. pneumoniae, 50 μM”. Further, the Activities entry with microorganisms is recorded as “G B M”. The “Organism, effect” value in the assay on S. pneumoniae [2] was “S. pneumoniae (H)”. In assay [3], the “Target(s)” value is listed as “E. coli; also recorded: P. aeruginosa; also recorded: S. pneumoniae; also recorded: C. jeikeium”.
For the substance “PF-C131: peptide having multiple activities (QWIVAKREIRMHIYCHISVIHVIIFFG; Peptide with targeting and/or antimicrobial activity)”, the “Organism, effect (morphology, biofilm and growth disruption)” value is “F. nucleatum (T)” in the assay on F. nucleatum and “S. mutans (F)” in the assay with S. mutans. Also, the Activities entry with microorganisms is listed as “G B”. Further, the “Target(s) (microorganisms bound by the targeting peptide)” value in assay [3] was “A. naeslundii; also recorded: F. nucleatum; also recorded: P. gingivalis; also recorded: S. mutans”.
In the case of VYSFLYVLVIVRKLLSMKKRIERL [PF-499], the Activities result with microorganisms was “B M”. Moreover, the “Target(s)” value in assay [3] is recorded as “S. mutans; also recorded: E. coli”. For the same substance, in the assay on B. subtilis [4], the MIC result is on record as “B. subtilis, 50 μM”.
